Measured values: PubChem BioAssay AID248 (DTP/NCI, 2004)
Several values for one entry are separate records, joined by “and”; a condition that tells them apart may be missing. Identical values can stand only once. Toxic doses and inconclusive results are not listed.

Tested on: L1210 leukemia ip in BDF1 mice, survival T/C
Test: NCI In Vivo Anticancer Drug Screen. Data for tumor model L1210 Leukemia (intraperitoneal) in B6D2F1 (BDF1) mice
Conditions: endpoint: mean survival time, higher = longer survival
Outline: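 Survival endpoint. Drug-treated group vs vehicle group, expressed as T divided by C. Tumor passaged by transplantation.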

[1] = dose: 100.0 mg/kg/injection, schedule: Q01DX009 (ip), vehicle: saline with Tween-80
[2] = dose: 100.0 mg/kg/injection, schedule: Q04DX003 (ip), vehicle: saline with Tween-80
[3] = dose: 200.0 mg/kg/injection, schedule: Q04DX003 (ip), vehicle: saline with Tween-80
[4] = dose: 25.0 mg/kg/injection, schedule: Q04DX003 (ip), vehicle: saline
[5] = dose: 50.0 mg/kg/injection, schedule: Q04DX003 (ip), vehicle: saline
[6] = dose: 100.0 mg/kg/injection, schedule: Q04DX003 (ip), vehicle: saline
[7] = dose: 100.0 mg/kg/injection, schedule: Q04DX002 (ip), vehicle: Klucel (hydroxypropylcellulose) (HPC)
[8] = dose: 200.0 mg/kg/injection, schedule: Q04DX002 (ip), vehicle: Klucel (hydroxypropylcellulose) (HPC)
[9] = dose: 400.0 mg/kg/injection, schedule: Q04DX003 (ip), vehicle: saline with Tween-80
[10] = dose: 100.0 mg/kg/injection, schedule: Q01DX001 (ip), vehicle: Klucel (hydroxypropylcellulose) (HPC)
[11] = dose: 100.0 mg/kg/injection, schedule: Q04DX003 (ip), vehicle: Klucel (hydroxypropylcellulose) (HPC)
[12] = dose: 50.0 mg/kg/injection, schedule: Q04DX002 (ip), vehicle: Klucel (hydroxypropylcellulose) (HPC)

Q: `Cc1c(Cl)cccc1NC(=O)Oc1cc(Cl)c(Cl)cc1Cl` was tested. Which T/C (dose: 50.0 mg/kg/injection, schedule: Q01DX009 (ip), vehicle: saline with Tween-80) did it give?
A: Its T/C is 92 % of control.

Q: What about the T/C [1] of the same compound?
A: Its T/C is 96 % of control.

Q: And the T/C [2]?
A: The T/C was 95 % of control.

Q: What about the T/C [3] of the same compound?
A: Its T/C is 106 % of control.

Q: How did the T/C (dose: 4.68 mg/kg/injection, schedule: Q01DX009 (ip), vehicle: carboxymethylcellulose (CMC)) turn out when `O=C(CBr)Nc1ccccc1S(=O)(=O)F` was run?
A: The T/C was 91 % of control.

Q: And the T/C (dose: 9.37 mg/kg/injection, schedule: Q01DX009 (ip), vehicle: carboxymethylcellulose (CMC))?
A: Its T/C is 91 % of control.

Q: And the T/C (dose: 18.75 mg/kg/injection, schedule: Q01DX009 (ip), vehicle: carboxymethylcellulose (CMC))?
A: The T/C was 94 % of control.

Q: And the T/C (dose: 18.75 mg/kg/injection, schedule: Q04DX003 (ip), vehicle: carboxymethylcellulose (CMC))?
A: Its T/C is 102 % of control.

Q: What about the T/C (dose: 37.5 mg/kg/injection, schedule: Q04DX003 (ip), vehicle: carboxymethylcellulose (CMC)) of the same compound?
A: The T/C was 102 % of control.

Q: And the T/C (dose: 75.0 mg/kg/injection, schedule: Q01DX001 (ip), vehicle: carboxymethylcellulose (CMC))?
A: The T/C was 96 % of control.

Q: What does the source list for `CC1(C)CC(=NNC2=NC=NC3=NC=NC32)CC(C)(C)N1O` (stereo not drawn)?
A: T/C [4]: 98 % of control; T/C [5]: 102 % of control; T/C [6]: 102 % of control

Q: `N#CC1c2ccccc2-c2ccccc2N1C(=O)c1ccccc1` (stereo not drawn) was tested. Which T/C [7] did it give?
A: Its T/C is 93 % of control.

Q: And the T/C [8]?
A: The T/C was 96 % of control.

Q: And the T/C (dose: 400.0 mg/kg/injection, schedule: Q04DX002 (ip), vehicle: Klucel (hydroxypropylcellulose) (HPC))?
A: The T/C was 107 % of control.

Q: Which T/C (dose: 25.0 mg/kg/injection, schedule: Q04DX003 (ip), vehicle: saline with Tween-80) does the source give for `O=c1oc(-c2ccccc2)nc2cc(Cl)ccc12` here?
A: Its T/C is 104 % of control.

Q: What about the T/C (dose: 50.0 mg/kg/injection, schedule: Q04DX003 (ip), vehicle: saline with Tween-80) of the same compound?
A: The T/C was 92 % of control.

Q: What about the T/C [1] of the same compound?
A: Its T/C is 90 % of control.

Q: And the T/C [2]?
A: Its T/C is 96 % of control and 103 % of control and 88 % of control.

Q: And the T/C (dose: 200.0 mg/kg/injection, schedule: Q01DX009 (ip), vehicle: saline with Tween-80)?
A: The T/C was 87 % of control.

Q: What about the T/C [3] of the same compound?
A: Its T/C is 98 % of control.

Q: What about the T/C (dose: 400.0 mg/kg/injection, schedule: Q01DX009 (ip), vehicle: saline with Tween-80) of the same compound?
A: Its T/C is 92 % of control.

Q: And the T/C [9]?
A: The T/C was 90 % of control.

Q: `CCCCOC(=O)CN(C)/N=N/c1nc[nH]c1C(=O)OCC` was tested. Which T/C (dose: 25.0 mg/kg/injection, schedule: Q01DX001 (ip), vehicle: Klucel (hydroxypropylcellulose) (HPC)) did it give?
A: Its T/C is 97 % of control.

Q: And the T/C (dose: 25.0 mg/kg/injection, schedule: Q04DX003 (ip), vehicle: Klucel (hydroxypropylcellulose) (HPC))?
A: The T/C was 99 % of control.

Q: And the T/C (dose: 50.0 mg/kg/injection, schedule: Q01DX001 (ip), vehicle: Klucel (hydroxypropylcellulose) (HPC))?
A: Its T/C is 97 % of control.

Q: What about the T/C (dose: 50.0 mg/kg/injection, schedule: Q04DX003 (ip), vehicle: Klucel (hydroxypropylcellulose) (HPC)) of the same compound?
A: Its T/C is 96 % of control.

Q: And the T/C [10]?
A: The T/C was 99 % of control and 104 % of control.

Q: What about the T/C [11] of the same compound?
A: The T/C was 94 % of control.

Q: How did the T/C (dose: 100.0 mg/kg/injection, schedule: Q01DX009 (ip), vehicle: other) turn out when `CCCCCCCCCCCC(=O)CCCCC` was run?
A: The T/C was 91 % of control.

Q: And the T/C (dose: 200.0 mg/kg/injection, schedule: Q01DX009 (ip), vehicle: other)?
A: Its T/C is 94 % of control.

Q: What about the T/C (dose: 400.0 mg/kg/injection, schedule: Q01DX009 (ip), vehicle: other) of the same compound?
A: The T/C was 91 % of control.

Q: What does the source list for `Cc1c([N+](=O)[O-])oc2ccc(Cl)cc12`?
A: T/C [12]: 93 % of control; T/C (dose: 100.0 mg/kg/injection, schedule: Q01DX009 (ip), vehicle: Klucel (hydroxypropylcellulose) (HPC)): 100 % of control; T/C [7]: 87 % of control; T/C (dose: 200.0 mg/kg/injection, schedule: Q01DX009 (ip), vehicle: Klucel (hydroxypropylcellulose) (HPC)): 91 % of control; T/C [8]: 93 % of control; T/C (dose: 400.0 mg/kg/injection, schedule: Q01DX009 (ip), vehicle: Klucel (hydroxypropylcellulose) (HPC)): 95 % of control

Q: `C#CC(C)(C)C(C(=O)OCC)C(=O)OCC` was tested. Which T/C (dose: 75.0 mg/kg/injection, schedule: Q01DX009 (ip), vehicle: Klucel (hydroxypropylcellulose) (HPC)) did it give?
A: Its T/C is 102 % of control.

Q: And the T/C (dose: 150.0 mg/kg/injection, schedule: Q01DX009 (ip), vehicle: Klucel (hydroxypropylcellulose) (HPC))?
A: Its T/C is 100 % of control.

Q: What about the T/C (dose: 300.0 mg/kg/injection, schedule: Q01DX009 (ip), vehicle: Klucel (hydroxypropylcellulose) (HPC)) of the same compound?
A: The T/C was 97 % of control.

Q: What does the source list for `Cc1cc(C)n(-c2nn3nnnc3c3ccccc23)n1`?
A: T/C (dose: 62.5 mg/kg/injection, schedule: Q04DX003 (ip), vehicle: saline): 101 % of control; T/C (dose: 125.0 mg/kg/injection, schedule: Q04DX003 (ip), vehicle: saline): 95 % of control; T/C (dose: 250.0 mg/kg/injection, schedule: Q04DX003 (ip), vehicle: saline): 93 % of control

Q: Which results are given for `[CH3][Sb]([CH3])([CH3])([O]C(=O)CF)[O]C(=O)CF`?
A: T/C (dose: 1.25 mg/kg/injection, schedule: Q04DX003 (ip), vehicle: saline with Tween-80): 91 % of control; T/C (dose: 2.5 mg/kg/injection, schedule: Q04DX003 (ip), vehicle: saline with Tween-80): 96 % of control; T/C (dose: 5.0 mg/kg/injection, schedule: Q04DX003 (ip), vehicle: saline with Tween-80): 110 % of control; T/C (dose: 5.0 mg/kg/injection, schedule: Q04DX003 (ip), vehicle: saline): 107 % of control

Q: How did the T/C [2] turn out when `COC(=O)C(CCCN(C)C)(CCCN(C)C)c1cccc2ccccc12` was run?
A: Its T/C is 96 % of control.

Q: With `C[N+](C)(C)C1(Cc2ccccc2)c2ccccc2-c2ccc(Br)cc21` (stereo not drawn) as the compound, how does the T/C (dose: 25.0 mg/kg/injection, schedule: Q01DX009 (ip), vehicle: saline) read?
A: Its T/C is 104 % of control.

Q: What about the T/C [4] of the same compound?
A: The T/C was 102 % of control.

Q: What about the T/C (dose: 50.0 mg/kg/injection, schedule: Q01DX009 (ip), vehicle: saline) of the same compound?
A: The T/C was 95 % of control.

Q: And the T/C [5]?
A: Its T/C is 97 % of control.

Q: And the T/C (dose: 100.0 mg/kg/injection, schedule: Q01DX009 (ip), vehicle: saline)?
A: The T/C was 94 % of control.

Q: What about the T/C [6] of the same compound?
A: The T/C was 98 % of control and 100 % of control.

Q: What does the source list for `O=C(Nc1ccc(C2=NCCCN2)cc1)Nc1ccc(NC(=O)Nc2ccc(C3=NCCCN3)cc2)c(Cl)c1`?
A: T/C (dose: 62.0 mg/kg/injection, schedule: Q01DX Z (ip), vehicle: carboxymethylcellulose (CMC)): 163 % of control; T/C (dose: 62.0 mg/kg/injection, schedule: Q01DX Z (oral), vehicle: carboxymethylcellulose (CMC)): 110 % of control; T/C (dose: 125.0 mg/kg/injection, schedule: Q01DX Z (oral), vehicle: carboxymethylcellulose (CMC)): 110 % of control; T/C (dose: 250.0 mg/kg/injection, schedule: Q01DX Z (oral), vehicle: carboxymethylcellulose (CMC)): 116 % of control; T/C (dose: 500.0 mg/kg/injection, schedule: Q01DX Z (oral), vehicle: carboxymethylcellulose (CMC)): 111 % of control

Q: Which T/C (dose: 100.0 mg/kg/injection, schedule: Q01DX001 (ip), vehicle: carboxymethylcellulose (CMC)) does the source give for `CN(C)c1ccc2c(c1)C(=O)c1cc(Br)ccc1-2` here?
A: Its T/C is 105 % of control.

Q: What about the T/C (dose: 200.0 mg/kg/injection, schedule: Q01DX001 (ip), vehicle: carboxymethylcellulose (CMC)) of the same compound?
A: Its T/C is 100 % of control.

Q: What about the T/C (dose: 400.0 mg/kg/injection, schedule: Q01DX001 (ip), vehicle: carboxymethylcellulose (CMC)) of the same compound?
A: Its T/C is 108 % of control.

Q: With `CCCCCCCCCCCCCCCCCCSc1ccccc1` as the compound, how does the T/C [11] read?
A: The T/C was 93 % of control.

Q: And the T/C (dose: 200.0 mg/kg/injection, schedule: Q04DX003 (ip), vehicle: Klucel (hydroxypropylcellulose) (HPC))?
A: The T/C was 93 % of control.

Q: And the T/C (dose: 400.0 mg/kg/injection, schedule: Q04DX003 (ip), vehicle: Klucel (hydroxypropylcellulose) (HPC))?
A: Its T/C is 94 % of control.

Q: What does the source list for `COc1ccc(C(=O)OCc2ccccc2CN2CCCC2)cc1`?
A: T/C [10]: 102 % of control; T/C (dose: 200.0 mg/kg/injection, schedule: Q01DX001 (ip), vehicle: Klucel (hydroxypropylcellulose) (HPC)): 98 % of control

Q: For `N#Cc1ccc(O)c(N)c1`, which T/C (dose: 100.0 mg/kg/injection, schedule: Q01DX001 (ip), vehicle: saline) is on record?
A: The T/C was 95 % of control.

Q: What about the T/C (dose: 200.0 mg/kg/injection, schedule: Q01DX001 (ip), vehicle: saline) of the same compound?
A: Its T/C is 90 % of control.

Q: What about the T/C (dose: 400.0 mg/kg/injection, schedule: Q01DX001 (ip), vehicle: saline) of the same compound?
A: Its T/C is 90 % of control.

Q: How did the T/C (dose: 25.0 mg/kg/injection, schedule: Q04DX002 (ip), vehicle: Klucel (hydroxypropylcellulose) (HPC)) turn out when `CCn1c2ccccc2c2cc3c(cc21)C(C)=NCC3` was run?
A: Its T/C is 112 % of control.

Q: What about the T/C [12] of the same compound?
A: The T/C was 102 % of control.

Q: And the T/C [7]?
A: The T/C was 102 % of control.

Q: What does the source list for `NC(=O)C1=CN(Cc2ccccc2)C=CC1`?
A: T/C [2]: 100 % of control; T/C [3]: 106 % of control; T/C [9]: 94 % of control
